Experimental data as given in publication PMC10571995, “Near-Infrared Imaging of Colonic Adenomas In Vivo Using Orthotopic Human Organoids for Early Cancer Detection” (Cancers, 2023).
Residues, ends and D or L forms follow the SMILES beside them. *: point of attachment. X2 = CC1(C)C(/C=C/C2=C(Oc3ccc(S(=O)(=O)O)cc3)C(=C/C=C3/N(CCCCCC(=O)NCCN4C(=O)CC(*)C4=O)c4ccc(S(=O)(=O)O)cc4C3(C)C)/CCC2)=[N+](CCCCS(=O)(=O)[O-])c2ccc(S(=O)(=O)O)cc21; X1 = CC1(C)C(=CC=C2CCCC(C=CC3=[N+](CCCCS(=O)(=O)[O-])c4ccc(S(=O)(=O)O)cc4C3(C)C)=C2Oc2ccc(S(=O)(=O)O)cc2)N(CCCCCC(=O)NCCN2C(=O)CC(*)C2=O)c2ccc(S(=O)(=O)O)cc21

Columns and labels:
cMet [1] = target: T1, cMet (Homo sapiens, UniProt P08581); assay: Peptide biodistribution, ex vivo NIR fluorescence of resected organs and colonoids (Pearl Trilogy); format: in vivo; details: NSG mice, 200 μM, 200 μL i.v., 1 hour post-injection, ex vivo λex 785 / λem 820 nm, mean ± SD
T1 construct: Human colonoids provide clinically relevant levels of target expression; endogenous in cells; host or cells: Patient-derived human colonoids (cMet-high adenoma, cMet-low adenoma, normal), either cultured or implanted orthotopically in NSG mouse colon
T1 sequence (P08581 25-1390): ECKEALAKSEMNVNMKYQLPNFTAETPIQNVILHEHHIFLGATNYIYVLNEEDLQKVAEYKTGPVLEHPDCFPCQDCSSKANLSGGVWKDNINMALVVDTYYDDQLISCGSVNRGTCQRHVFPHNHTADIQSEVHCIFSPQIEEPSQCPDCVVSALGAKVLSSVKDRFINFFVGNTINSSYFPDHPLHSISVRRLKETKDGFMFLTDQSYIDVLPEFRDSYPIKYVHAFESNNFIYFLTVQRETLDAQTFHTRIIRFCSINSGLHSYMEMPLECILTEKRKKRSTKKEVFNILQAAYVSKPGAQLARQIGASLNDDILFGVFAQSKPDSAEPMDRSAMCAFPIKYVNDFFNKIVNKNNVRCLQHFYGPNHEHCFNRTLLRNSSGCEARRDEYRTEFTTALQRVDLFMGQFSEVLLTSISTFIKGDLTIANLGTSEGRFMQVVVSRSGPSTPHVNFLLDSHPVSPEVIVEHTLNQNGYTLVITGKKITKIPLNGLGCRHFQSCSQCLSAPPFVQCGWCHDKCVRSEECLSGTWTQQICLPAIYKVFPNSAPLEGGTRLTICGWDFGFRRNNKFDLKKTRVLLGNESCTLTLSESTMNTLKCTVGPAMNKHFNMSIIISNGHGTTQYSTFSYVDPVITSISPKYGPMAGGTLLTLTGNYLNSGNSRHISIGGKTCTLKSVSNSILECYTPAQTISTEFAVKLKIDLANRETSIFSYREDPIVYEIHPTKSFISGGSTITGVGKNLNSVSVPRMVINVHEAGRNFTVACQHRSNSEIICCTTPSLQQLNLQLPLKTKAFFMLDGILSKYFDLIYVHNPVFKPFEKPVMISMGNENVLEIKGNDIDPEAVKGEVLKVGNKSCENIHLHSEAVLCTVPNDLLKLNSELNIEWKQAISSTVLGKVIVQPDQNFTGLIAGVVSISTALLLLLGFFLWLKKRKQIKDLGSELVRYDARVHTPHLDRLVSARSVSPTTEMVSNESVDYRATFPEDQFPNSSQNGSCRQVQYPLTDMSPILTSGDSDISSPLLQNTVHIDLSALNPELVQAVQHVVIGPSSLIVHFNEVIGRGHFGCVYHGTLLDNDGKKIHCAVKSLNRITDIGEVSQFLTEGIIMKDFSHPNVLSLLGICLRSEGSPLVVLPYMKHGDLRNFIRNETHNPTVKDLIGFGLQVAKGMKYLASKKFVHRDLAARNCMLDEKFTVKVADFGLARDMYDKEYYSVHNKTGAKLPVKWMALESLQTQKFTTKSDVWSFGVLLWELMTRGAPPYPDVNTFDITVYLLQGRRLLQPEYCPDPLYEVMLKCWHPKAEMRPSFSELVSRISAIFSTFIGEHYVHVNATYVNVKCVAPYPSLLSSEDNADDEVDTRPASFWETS
Protocol: Peptides (200 μM, 200 μL) were injected intravenously in NSG mice ~3 weeks after orthotopic implantation of the patient-derived colonoids. The mice were euthanized at 1 h post-injection. Major organs were resected and imaged using the Pearl Trilogy (LI-COR Biosciences) with excitation at λex = 785 nm and emission at λem = 820 nm to measure the peptide biodistribution. Fluorescence intensities were quantified from each whole tumor or organ using Image Studio 5.5.4 software (LI-COR Biosciences).

cMet [2] = target: T1, cMet; assay: In vivo NIR fluorescence endoscopy of patient-derived colonoids implanted orthotopically in NSG mouse colon; details: NSG mice, 1 h post-injection, n = 6 mice
Protocol: Colonoids were harvested and treated, as described previously. Colonoids were resuspended in engraftment medium: DPBS, 5% Matrigel, 10 µM Y27632. Prior to colonoid implantation, 7–12-week-old NSG (NOD.Cg-Prkdc^scidIl2rg^tm1Wjl/SzJ, Jackson laboratory, #005557) mice were treated with 2.5% dextran sulfate sodium (DSS) for 5 days and supplied with regular water for another day. Anesthesia was induced and maintained via a nose cone with inhaled isoflurane mixed with oxygen at concentrations of 2–4% at a flow rate of 0.5 L/min. A total of ~2.5–5 × 10^5 cell aggregates in 200 μL were injected intrarectally. The rectum was closed immediately using tissue adhesive (Santa Cruz Biotechnology, Dallas, TX, USA; #SC361931) to promote retention of the implanted colonoids. Colonoid growth was monitored weekly by small animal endoscopy with white light illumination. Imaging was performed after the implanted adenomas were clearly visible.
Mice were fasted for 4–6 h prior to in vivo imaging. Anesthesia was induced and maintained using inhaled isoflurane mixed with oxygen at concentrations of 2–4% and a flow rate of 0.5 L/min via a nose cone. The peptides were injected intravenously using a concentration of 200 μM diluted in 200 μL of PBS. A rigid small animal endoscope (Karl Storz Veterinary Endoscopy, Goleta, CA, USA) was modified to deliver NIR excitation at λex = 785 nm. This instrument was inserted into the mouse rectum at 1 h post-injection to collect in vivo fluorescence images. After 3 days to allow for target peptide clearance, the scrambled (control) peptide was administered systemically and imaged similarly. A total of n = 3 independent regions of interest (ROI) with dimensions of 20 × 20 μm^2 were identified randomly from the implanted area (target) and from adjacent normal colonic mucosa (background). The mean fluorescence intensities were used to calculate target-to-background (T/B) ratios.

cMet [3] = target: T1, cMet; assay: Ex vivo immunofluorescence of excised NSG mouse colon with implanted colonoids, human-to-mouse (h/m) ratio; format: binding; details: excised NSG colon sections, peptide 5 μM 10 min RT, antibody 1:100, mean ± SD, n = 6 colonoids
Protocol: Tissue sections were deparaffinized, and antigen retrieval was performed as described previously. Sections were blocked with goat serum for 30 min at RT followed by overnight incubation with 1:100 dilution of monoclonal anti-cMet antibody (Abcam; #EP1454Y) and undiluted human-specific anti-cytokeratin (CAM 5.2, BD Biosciences, Franklin Lakes, NJ, USA; #345779) at 4 °C. Thereafter, 1:500 AF488-labeled goat anti-rabbit secondary antibody (Life Technologies; #A-11029) and 1:500 AF568-labeled goat anti-mouse secondary antibody (Abcam, #ab175473) were administered. After washing with PBST, the slides were stained with the IRDye800-labeled peptides at a concentration of 5 μM for 10 min at RT. The tissue sections were then washed with PBST and mounted using a Prolong Gold reagent containing DAPI (Invitrogen; #P36931). NIR fluorescence images were collected using an inverted confocal microscope (Leica; Stellaris 5). The fluorescence intensities were quantified using custom MATLAB R2022a, and regions of saturated intensities were avoided.

[4] = Peptide safety: necropsy histology (H&E), blood hematology and chemistry; format: in vivo, mouse; details: CPC;Apc mice, 200 μM, 200 μL i.v., 48 h post-injection
Protocol: CPC;Apc mice were euthanized at 48 hours post-injection with QQT* -IRDye800 (200 μM, 200 μL). Vital organs were excised, sectioned, and evaluated by routine histology (H&E) to evaluate for signs of acute toxicity. Whole blood was collected retro-orbitally using a capillary tube and submitted for evaluation of hematology and chemistry.

colonic adenomas = assay: In vivo NIR fluorescence endoscopy of spontaneous colonic adenomas in CPC;Apc mice (pharmacokinetics, T/B ratio); parameters: species or system mouse
Protocol: CPC;Apc mice have been genetically engineered to sporadically delete an APC gene regulated by a Cre promoter (CDX2P-9.5NLS-Cre) to spontaneously form either flat or polypoid adenomas in the distal colon.
The IRDye800-labeled target peptide (200 μM, 200 μL) was injected intravenously in Cpc;Apc mice, and fluorescence images were collected at 0, 0.5, 1, 2, 4, 6, 10, 24, 48 h post-injection using the small animal endoscope. The IRDye800-labeled scrambled (control) peptide was administered and imaged the same way 3 days after. The adjacent nontumor tissue region with an equal area of the tumor region was used for background. The time point with the highest target-to-background (T/B) ratio was selected as peak uptake.

[5] = Serum stability by analytical RP-HPLC; format: in vitro ADME; details: CPC;Apc mouse serum 194 μL, 30 μM peptide, 37 °C, 0, 0.5, 1, 2, 4, 8, 24 h, acetonitrile precipitation, RP-HPLC area under the peak, R^2 = 0.99; read-out: Half-life T1/2 in mouse serum (converted)
Protocol: Peptide stability was evaluated by incubating 6 μL of 1 mM peptide in PBS at 37 °C, resulting in a final concentration of 30 μM in 194 μL of serum obtained from a CPC;Apc mouse. Samples were precipitated by adding a double volume of acetonitrile and centrifuging for 10 min at 4 °C. RP-HPLC was performed at 0, 0.5, 1, 2, 4, 8, and 24 h. The relative peptide concentrations were determined by measuring the area under the peak (Waters, Breeze 2). The coefficient of determination R^2 was determined using Graphpad Prism 8 software (GraphPad Software, Boston, MA, USA).

[6] = 200 μM in 200 μL i.v., mean ± SD
[7] = 200 μM, 200 μL i.v., images at 0-48 h
[8] = spontaneous adenomas, 1 hour after i.v. administration, mean ± SD

| SMILES | Uptake (quantified fluorescence) by cMet^high adenoma colonoid (cMet [1]) | Uptake (quantified fluorescence) by cMet^low adenoma colonoid (cMet [1]) | Quantified fluorescence intensity (T/B ratio) in vivo, cMet^high adenoma (cMet [2]; 200 μM in 200 μL i.v., endoscope λex 785 nm, mean ± SD) | Quantified fluorescence intensity (T/B ratio) in vivo, cMet^low adenoma (cMet [2]; [6]) | Quantified fluorescence intensity (T/B ratio) in vivo, normal colonoid (cMet [2]; [6]) | Fold increase QQT*-IRDye800 versus TLQ*-IRDye800, cMet^high adenoma (cMet [2]) [fold] | Fluorescence intensity human-to-mouse (h/m) ratio, cMet^high adenoma colonoid (cMet [3]) | Fluorescence intensity human-to-mouse (h/m) ratio, cMet^low adenoma (cMet [3]) | Fluorescence intensity human-to-mouse (h/m) ratio, normal colonoid (cMet [3]) | Acute toxicity in animal necropsy, histology (H&E) of vital organs [4] | Whole blood hematology and chemistry ([4]; n = 6 mice) | Uptake (quantified fluorescence) by normal human colonoid (cMet [1]) | Peak T/B ratio (peak uptake by the adenoma) (colonic adenomas; 200 μM, 200 μL i.v., at 1 h post-injection, mean ± SD, n = 6 mice) | Time of peak uptake (peak T/B ratio) post-injection (colonic adenomas; [7]) [h] | Time to clearance of signal (return to baseline) (colonic adenomas; [7]) | T/B ratio, flat lesions (colonic adenomas; [8]) | T/B ratio, grossly visible adenomas (colonic adenomas; [8]) | T/B ratio, small adenomas (colonic adenomas; [8]) | half-life at 30 μM [5] [h] |
| --- | --- | --- | --- | --- | --- | --- | --- | --- | --- | --- | --- | --- | --- | --- | --- | --- | --- | --- | --- |
| CC(C)C[C@H](NC(=O)[C@@H](N)[C@@H](C)O)C(=O)N[C@@H](CCC(N)=O)C(=O)N[C@@H](Cc1c[nH]c2ccccc12)C(=O)N[C@@H](CC(N)=O)C(=O)N[C@@H](CCC(N)=O)C(=O)N[C@@H](CO)C(=O)NCC(=O)NCC(=O)NCC(=O)N[C@@H](CO)C(=O)N[C@@H](CSC1CC(=O)N(CCNC(=O)CCCCCN2/C(=C/C=C3\CCCC(/C=C/C4=[N+](CCCCS(=O)(=O)[O-])c5ccc(S(=O)(=O)O)cc5C4(C)C)=C3Oc3ccc(S(=O)(=O)O)cc3)C(C)(C)c3cc(S(=O)(=O)O)ccc32)C1=O)C(N)=O (stereo partly drawn) [TLQ*-IRDye800, reference compound] (H-TLQWNQSGGGSC(X2)-NH2) | 0.29±0.098 | 0.25±0.06 | – | – | – | – | – | – | – | – | – | – | – | – | – | – | – | – | – |
| CC(C)C[C@H](NC(=O)[C@H](CO)NC(=O)[C@H](Cc1c[nH]c2ccccc12)NC(=O)[C@H](CC(N)=O)NC(=O)[C@@H](NC(=O)[C@H](CCC(N)=O)NC(=O)[C@@H](N)CCC(N)=O)[C@@H](C)O)C(=O)NCC(=O)NCC(=O)NCC(=O)N[C@@H](CO)C(=O)N[C@@H](CSC1CC(=O)N(CCNC(=O)CCCCCN2C(=CC=C3CCCC(C=CC4=[N+](CCCCS(=O)(=O)[O-])c5ccc(S(=O)(=O)O)cc5C4(C)C)=C3Oc3ccc(S(=O)(=O)O)cc3)C(C)(C)c3cc(S(=O)(=O)O)ccc32)C1=O)C(N)=O (stereo partly drawn) [QQT*-IRDye800] (H-QQTNWSLGGGSC(X1)-NH2; N-terminus and C-terminus assumed) | 1.24±0.16 | 0.23±0.08 | 2.35 ± 0.35 | 1.19 ± 0.12 | 1.22 ± 0.18 | 1.8 | 7.68 ± 1.23 | 0.87 ± 0.31 | 1.19 ± 0.39 | No signs of acute toxicity | No significant abnormalities | 0.18±0.04 | 2.2 ± 0.4 | 1 | ~ 24 h | 2.17±0.30 | 1.91±0.28 | 2.23±0.43 | 3.6 |
